Experimental data from patent publication US5541175A, “Cephalosporin antibiotics” (Lucky, Ltd., priority 1993, dated 1996).
Converted amounts (≈) assume the structure as drawn. Where two headings read alike, the source gives them in different places.

Key:
[1] = test system: Acinetobacter calcoaceticus 15473A; assay: Minimum inhibitory concentration (agar 2-fold dilution); type: cell-based; details: A. calcoaceticus 15473A, Muller-Hinton agar, 37° C., 20 hours, read-out: Minimum Inhibitory Concentration
Method: (§1) The minimum inhibitory concentration was determined by diluting the test compounds according to 2-fold dilution, suspending them in Muller-Hinton agar medium, inoculating 2 μl of the suspension containing the test strains having 10^7 CFU (Colony Forming Unit) per 1 ml into the medium and then culturing the test strains at 37° C. for 20 hours.

[2] = test system: Citrobacter diversus 2046E; assay: as above; type: cell-based; details: Citrobacter koseri; C. diversus 2046E; Muller-Hinton agar, 37° C., 20 hours; read-out: Minimum Inhibitory Concentration
Method: as §1

[3] = test system: Enterobacter cloacae IND + VE 1194E; assay: as above; type: cell-based; details: E. cloacae IND + VE 1194E, Muller-Hinton agar, 37° C., 20 hours, read-out: Minimum Inhibitory Concentration
Method: as §1

[4] = test system: Enterobacter cloacae P99; assay: as above; type: cell-based; details: P99, 20 h, read-out: Minimum Inhibitory Concentration
Method: as §1

[5] = test system: Escherichia coli 10536; assay: as above; type: cell-based; details: Escherichia coli; E. coli 10536; Muller-Hinton agar, 37° C., 20 hours; read-out: Minimum Inhibitory Concentration
Method: as §1

[6] = test system: Escherichia coli 3190Y; assay: as above; type: cell-based; details: E. coli 3190Y, Muller-Hinton agar, 37° C., 20 hours, read-out: Minimum Inhibitory Concentration
Method: as §1

[7] = test system: Escherichia coli 851E; assay: as above; type: cell-based; details: E. coli 851E, Muller-Hinton agar, 37° C., 20 hours
Method: as §1

[8] = test system: Escherichia coli TEM1 1193E; assay: as above; type: cell-based; details: TEM11193E, 20 h, read-out: Minimum Inhibitory Concentration
Method: as §1

[9] = test system: Escherichia coli TEM3 3455E; assay: as above; type: cell-based; details: TEM33455E, 20 h, read-out: Minimum Inhibitory Concentration
Method: as §1

[10] = test system: Escherichia coli TEM5 3739E; assay: as above; type: cell-based; details: TEM53739E, 20 h, read-out: Minimum Inhibitory Concentration
Method: as §1

[11] = test system: Escherichia coli TEM7 3457E; assay: as above; type: cell-based; details: TEM73457E, 20 h, read-out: Minimum Inhibitory Concentration
Method: as §1

[12] = test system: Escherichia coli TEM9 2639E; assay: as above; type: cell-based; details: TEM92639E, 20 h, read-out: Minimum Inhibitory Concentration
Method: as §1

[13] = test system: Klebsiella aerogenes K1 + 1082E; assay: as above; type: cell-based; details: 20 h, read-out: Minimum Inhibitory Concentration
Method: as §1

[14] = test system: Klebsiella aerogenes SHV-1 1976E; assay: as above; type: cell-based; details: SHV11976E, K. aerogenes SHV-1 1976E, Muller-Hinton agar, 37° C., 20 hours
Method: as §1

[15] = test system: Proteus vulgaris 6059A; assay: as above; type: cell-based; details: P. vulgaris 6059A, Muller-Hinton agar, 37° C., 20 hours, read-out: Minimum Inhibitory Concentration
Method: as §1

[16] = test system: Pseudomonas aeruginosa 10145; assay: as above; type: cell-based; details: Pseudomonas aeruginosa; P. aeruginosa 10145; Muller-Hinton agar, 37° C., 20 hours; read-out: Minimum Inhibitory Concentration
Method: as §1

[17] = test system: Pseudomonas aeruginosa 1912E; assay: as above; type: cell-based; details: P. aeruginosa 1912E, Muller-Hinton agar, 37° C., 20 hours, read-out: Minimum Inhibitory Concentration
Method: as §1

[18] = test system: Pseudomonas aeruginosa 6065; assay: as above; type: cell-based; details: Pseudomonas aeruginosa; P. aeruginosa 6065; Muller-Hinton agar, 37° C., 20 hours; read-out: Minimum Inhibitory Concentration
Method: as §1

[19] = test system: Salmonella typhimurium 14028A; assay: as above; type: cell-based; details: Salmonella enterica; S. typhimurium 14028A; Muller-Hinton agar, 37° C., 20 hours; read-out: Minimum Inhibitory Concentration
Method: as §1

[20] = test system: Serratia marcescens 1826E; assay: as above; type: cell-based; details: S. marcescens 1826E, Muller-Hinton agar, 37° C., 20 hours, read-out: Minimum Inhibitory Concentration
Method: as §1

[21] = test system: Staphylococcus aureus 241; assay: as above; type: cell-based; details: Staphylococcus aureus; S. aureus 241; Muller-Hinton agar, 37° C., 20 hours; read-out: Minimum Inhibitory Concentration
Method: as §1

[22] = test system: Staphylococcus aureus 6538P; assay: as above; type: cell-based; details: read-out: Minimum Inhibitory Concentration
Method: as §1

[23] = test system: Staphylococcus aureus 77; assay: as above; type: cell-based; details: read-out: Minimum Inhibitory Concentration
Method: as §1

[24] = test system: Staphylococcus aureus epidermidis 887E; assay: as above; type: cell-based; details: S. aureus epidermidis 887E, Muller-Hinton agar, 37° C., 20 hours, read-out: Minimum Inhibitory Concentration
Method: as §1

[25] = test system: Staphylococcus aureus giorgio; assay: as above; type: cell-based; details: S. aureus giorgio, Muller-Hinton agar, 37° C., 20 hours, read-out: Minimum Inhibitory Concentration
Method: as §1

[26] = test system: Streptococcus faecalis 29212A; assay: as above; type: cell-based; details: Enterococcus faecalis; S. faecalis 29212A; Muller-Hinton agar, 37° C., 20 hours; read-out: Minimum Inhibitory Concentration
Method: as §1

[27] = Pharmacokinetic properties in rats (blood concentration by agar well biological assay); design: species or system SD rats (male); details: rat, in vivo, iv, 20 mg/kg
Method: The pharmacokinetic properties of the compound of the present invention were determined using SD rats (.male.) weighing 230±10 g. Specifically,the test samples were injected into femoral vein in an amount of 20 mg/kg to 4 to 5 test animals. Blood was taken from femoral vein 1, 2.5, 5, 10, 20, 40, 60, 120 and 180 minutes after administration and then subjected to a biological assay using agar well method to measure the blood concentration.

[28] = Staphylococcus aureus, S. aureus 77, Muller-Hinton agar, 37° C., 20 hours

SMILES	MIC [1]	MIC [2]	MIC [3]	MIC [4]	MIC [5]	MIC [6]	MIC [7]	MIC [8]	MIC [9]	MIC [10]	MIC [11]	MIC [12]	MIC [13]	MIC [14]	MIC [15]	MIC [16]	MIC [17]	MIC [18]	MIC [19]	MIC [20]	also measured
Nc1nc(/C(=N/O[C@H](C(=O)O)c2ccc(O)c(O)c2)C(=O)N[C@@H]2C(=O)N3C(C(=O)[O-])=C(/C=C/C[n+]4cnc(N)c5c4CCC5)CS[C@H]23)cs1 [Compound I-3a, 7-[(Z)-2-(2-aminothiazol-4-yl)-2-(α-carboxy-3,4-dihydroxybenzyloxyimino)acetamido]-3-[(E)-3-(4-amino-5,6-cyclopentanopyrimidinium-1-yl)-1-propen-1-yl]-3-cephem-4-carboxylate]	0.5 µg/mL (≈ 0.705 µM)	0.063 µg/mL (≈ 0.0889 µM)	2 µg/mL	16 µg/mL (≈ 22.6 µM)	0.008 µg/mL (≈ 0.0113 µM)	0.031 µg/mL (≈ 0.0437 µM)	0.031 µg/mL (≈ 0.0437 µM)	0.063 µg/mL (≈ 0.0889 µM)	0.063 µg/mL (≈ 0.0889 µM)	0.5 µg/mL (≈ 0.705 µM)	0.13 µg/mL (≈ 0.183 µM)	2 µg/mL (≈ 2.82 µM)	0.063 µg/mL (≈ 0.0889 µM)	0.13 µg/mL (≈ 0.183 µM)	0.13 µg/mL (≈ 0.183 µM)	0.5 µg/mL (≈ 0.705 µM)	0.5 µg/mL (≈ 0.705 µM)	1 µg/mL (≈ 1.41 µM)	0.031 µg/mL (≈ 0.0437 µM)	0.5 µg/mL (≈ 0.705 µM)	MIC [21]: > 128 µg/mL; MIC ([22]; 6538P, 20 h): 1 µg/mL (≈ 1.41 µM); MIC [23, 28]: 4 µg/mL (≈ 5.64 µM); MIC [24]: 64 µg/mL (≈ 90.3 µM); MIC [25]: 1 µg/mL (≈ 1.41 µM); MIC [26]: 4 µg/mL (≈ 5.64 µM); AUC [27]: 36600 ng·h/mL; half-life [27]: 33 min
Cc1c(N)nc[n+](C/C=C/C2=C(C(=O)[O-])N3C(=O)[C@@H](NC(=O)/C(=N\O[C@@H](C(=O)O)c4ccc(O)c(O)c4)c4csc(N)n4)[C@H]3SC2)c1N [Compound I-4b, 7-[(Z)-2-(2-aminothiazol-4-yl)-2-(α-carboxy-3,4-dihydroxybenzyloxyimino)acetamido]-3-[(E)-3-(4,6-diamino-5-methylpyrimidinium-1-yl)-1-propen-1-yl]-3-cephem-4-carboxylate]	4 µg/mL (≈ 5.73 µM)	4 µg/mL (≈ 5.73 µM)	8 µg/mL	16 µg/mL (≈ 22.9 µM)	0.13 µg/mL (≈ 0.186 µM)	0.13 µg/mL (≈ 0.186 µM)	0.13 µg/mL (≈ 0.186 µM)	0.25 µg/mL (≈ 0.358 µM)	0.5 µg/mL (≈ 0.717 µM)	1 µg/mL (≈ 1.43 µM)	0.25 µg/mL (≈ 0.358 µM)	1 µg/mL (≈ 1.43 µM)	2 µg/mL (≈ 2.87 µM)	1 µg/mL (≈ 1.43 µM)	1 µg/mL (≈ 1.43 µM)	4 µg/mL (≈ 5.73 µM)	8 µg/mL (≈ 11.5 µM)	16 µg/mL (≈ 22.9 µM)	0.13 µg/mL (≈ 0.186 µM)	2 µg/mL (≈ 2.87 µM)	MIC [21]: 128 µg/mL (≈ 183 µM); MIC ([22]; S. aureus 6538P, Muller-Hinton agar, 37° C., 20 hours): 0.5 µg/mL (≈ 0.717 µM); MIC [23, 28]: 2 µg/mL (≈ 2.87 µM); MIC [24]: 32 µg/mL (≈ 45.9 µM); MIC [25]: 0.5 µg/mL (≈ 0.717 µM); MIC [26]: 8 µg/mL (≈ 11.5 µM)
Nc1nc(/C(=N/O[C@@H](C(=O)O)c2ccc(O)c(O)c2)C(=O)N[C@@H]2C(=O)N3C(C(=O)[O-])=C(/C=C/C[n+]4cnc(N)c(N)c4N)CS[C@H]23)cs1 [Compound I-5b, 7-[(Z)-2-(2-aminothiazol-4-yl)-2-(α-carboxy-3,4-dihydroxybenzyloxyimino)acetamido]-3-[(E)-3-(4,5,6-triaminopyrimidinium-1-yl)-1-propen-1-yl]-3-cephem-4-carboxylate]	1 µg/mL (≈ 1.43 µM)	4 µg/mL (≈ 5.72 µM)	8 µg/mL	16 µg/mL (≈ 22.9 µM)	0.13 µg/mL (≈ 0.186 µM)	0.13 µg/mL (≈ 0.186 µM)	0.13 µg/mL (≈ 0.186 µM)	0.25 µg/mL (≈ 0.358 µM)	0.063 µg/mL (≈ 0.0902 µM)	1 µg/mL (≈ 1.43 µM)	0.25 µg/mL (≈ 0.358 µM)	1 µg/mL (≈ 1.43 µM)	1 µg/mL (≈ 1.43 µM)	1 µg/mL (≈ 1.43 µM)	1 µg/mL (≈ 1.43 µM)	2 µg/mL (≈ 2.86 µM)	1 µg/mL (≈ 1.43 µM)	8 µg/mL (≈ 11.4 µM)	0.031 µg/mL (≈ 0.0444 µM)	2 µg/mL (≈ 2.86 µM)	MIC [21]: 128 µg/mL (≈ 183 µM); MIC ([22]; 6538P, 20 h): 0.5 µg/mL (≈ 0.716 µM); MIC ([23]; Staphylococcus aureus, 77, 20 h): 2 µg/mL (≈ 2.86 µM); MIC [24]: 64 µg/mL (≈ 91.6 µM); MIC [25]: 0.5 µg/mL (≈ 0.716 µM); MIC [26]: 8 µg/mL (≈ 11.4 µM)
